Experimental data taken from PubChem BioAssay (NCI).
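Dose response: 5 concentrations. Exposure: 48 h. Format: 96-well plates. Endpoint: linear interpolation; highest concentration if not reached. Abbreviation: GI50, concentration required for 50% inhibition of growth. TGI denotes the concentration required for complete inhibition of growth.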

Experiments:
Assay in all cases: inhibition of tumour cell growth, NCI panel, 48 h
786-0 renal = test system: 786-0 renal
A498 renal = test system: A498 renal
A549 NSCLC = test system: A549 NSCLC
ACHN renal = test system: ACHN renal
BT-549 breast = test system: BT-549 breast
CAKI-1 renal = test system: CAKI-1 renal
CCRF-CEM leukemia = test system: CCRF-CEM leukemia
COLO 205 colon = test system: COLO 205 colon
DU-145 prostate = test system: DU-145 prostate
EKVX NSCLC = test system: EKVX NSCLC
HCC-2998 colon = test system: HCC-2998 colon
HCT-116 colon = test system: HCT-116 colon
HCT-15 colon = test system: HCT-15 colon
HL-60(TB) leukemia = test system: HL-60(TB) leukemia
HOP-62 NSCLC = test system: HOP-62 NSCLC
HOP-92 NSCLC = test system: HOP-92 NSCLC
HS 578T breast = test system: HS 578T breast
HT29 colon = test system: HT29 colon
IGROV1 ovarian = test system: IGROV1 ovarian
K-562 leukemia = test system: K-562 leukemia
KM12 colon = test system: KM12 colon
LOX IMVI melanoma = test system: LOX IMVI melanoma
M14 melanoma = test system: M14 melanoma
MALME-3M melanoma = test system: MALME-3M melanoma
MCF7 breast = test system: MCF7 breast
MDA-MB-231 breast = test system: MDA-MB-231 breast
MDA-MB-435 = test system: MDA-MB-435
MOLT-4 leukemia = test system: MOLT-4 leukemia
NCI-H226 lung = test system: NCI-H226 lung
NCI-H23 lung = test system: NCI-H23 lung
NCI-H460 lung = test system: NCI-H460 lung
NCI-H522 lung = test system: NCI-H522 lung
NCI/ADR-RES ovarian = test system: NCI/ADR-RES ovarian
OVCAR-3 ovarian = test system: OVCAR-3 ovarian
OVCAR-4 ovarian = test system: OVCAR-4 ovarian
OVCAR-5 ovarian = test system: OVCAR-5 ovarian
OVCAR-8 ovarian = test system: OVCAR-8 ovarian
PC-3 prostate = test system: PC-3 prostate
RPMI-8226 leukemia = test system: RPMI-8226 leukemia
RXF 393 renal = test system: RXF 393 renal
SF-268 CNS = test system: SF-268 CNS
SF-295 CNS = test system: SF-295 CNS
SF-539 CNS = test system: SF-539 CNS
SK-MEL-2 melanoma = test system: SK-MEL-2 melanoma
SK-MEL-28 melanoma = test system: SK-MEL-28 melanoma
SK-MEL-5 melanoma = test system: SK-MEL-5 melanoma
SK-OV-3 ovarian = test system: SK-OV-3 ovarian
SN12C renal = test system: SN12C renal
SNB-19 CNS = test system: SNB-19 CNS
SNB-75 CNS = test system: SNB-75 CNS
SR leukemia = test system: SR leukemia
SW-620 colon = test system: SW-620 colon
T-47D breast = test system: T-47D breast
TK-10 renal = test system: TK-10 renal
U251 CNS = test system: U251 CNS
UACC-257 melanoma = test system: UACC-257 melanoma
UACC-62 melanoma = test system: UACC-62 melanoma
UO-31 renal = test system: UO-31 renal

Work on `COc1ccc(/C=N/NC(=O)c2[nH]c3ccc(Br)cc3c2-c2ccccc2)s1` yielded a GI50 (786-0 renal) of 152 nM, a TGI (786-0 renal) of over 100000 nM and a GI50 (A498 renal) of 33800 nM. For the same compound, the TGI (A498 renal) was over 100000 nM, the GI50 (A549 NSCLC) was 160 nM and the TGI (A549 NSCLC) was over 100000 nM. It also gave a GI50 (ACHN renal) of 169 nM, a TGI (ACHN renal) of over 52800 nM and a GI50 (BT-549 breast) of 88.5 nM. For the same compound, the TGI (BT-549 breast) was 367 nM, the GI50 (CAKI-1 renal) was 168 nM and the TGI (CAKI-1 renal) was over 57300 nM. For the same compound, the GI50 (CCRF-CEM leukemia) was 121 nM, the TGI (CCRF-CEM leukemia) was over 100000 nM and the GI50 (COLO 205 colon) was 195 nM. It also gave a TGI (COLO 205 colon) of 375 nM, a GI50 (DU-145 prostate) of 135 nM and a TGI (DU-145 prostate) of 45700 nM. For the same compound, the GI50 (EKVX NSCLC) was 3550 nM, the TGI (EKVX NSCLC) was over 100000 nM and the GI50 (HCC-2998 colon) was 349 nM. It also gave a TGI (HCC-2998 colon) of over 71600 nM, a GI50 (HCT-116 colon) of 103 nM and a GI50 (HCT-15 colon) of 141 nM. The TGI (HCT-15 colon) was over 37000 nM, the GI50 (HL-60(TB) leukemia) was 77.8 nM and the TGI (HL-60(TB) leukemia) was 2690 nM. It also gave a GI50 (HOP-62 NSCLC) of 455 nM, a TGI (HOP-62 NSCLC) of over 87800 nM and a GI50 (HOP-92 NSCLC) of 1280 nM. It also gave a TGI (HOP-92 NSCLC) of over 100000 nM, a GI50 (HS 578T breast) of 1140 nM and a TGI (HS 578T breast) of over 31400 nM. It also gave a GI50 (HT29 colon) of 84.6 nM, a TGI (HT29 colon) of 3290 nM and a GI50 (IGROV1 ovarian) of 123 nM. It also gave a TGI (IGROV1 ovarian) of 25200 nM, a GI50 (K-562 leukemia) of 113 nM and a TGI (K-562 leukemia) of over 100000 nM. The GI50 (KM12 colon) was 301 nM, the TGI (KM12 colon) was over 60500 nM and the GI50 (LOX IMVI melanoma) was 38.4 nM. For the same compound, the TGI (LOX IMVI melanoma) was over 100000 nM, the GI50 (M14 melanoma) was 142 nM and the TGI (M14 melanoma) was over 100000 nM. The GI50 (MALME-3M melanoma) was 148 nM, the TGI (MALME-3M melanoma) was over 70300 nM and the GI50 (MCF7 breast) was 110 nM. For the same compound, the TGI (MCF7 breast) was 14400 nM, the GI50 (MDA-MB-231 breast) was 336 nM and the TGI (MDA-MB-231 breast) was 15700 nM. For the same compound, the GI50 (MDA-MB-435) was 65.6 nM, the TGI (MDA-MB-435) was 153 nM and the GI50 (MOLT-4 leukemia) was 113 nM. It also gave a TGI (MOLT-4 leukemia) of over 100000 nM, a GI50 (NCI-H226 lung) of 115 nM and a TGI (NCI-H226 lung) of 30200 nM. The GI50 (NCI-H23 lung) was 124 nM, the TGI (NCI-H23 lung) was over 47700 nM and the GI50 (NCI-H460 lung) was 246 nM. The TGI (NCI-H460 lung) was 3630 nM, the GI50 (NCI-H522 lung) was 19.3 nM and the TGI (NCI-H522 lung) was 54.4 nM. The GI50 (NCI/ADR-RES ovarian) was 39.8 nM, the TGI (NCI/ADR-RES ovarian) was 4360 nM and the GI50 (OVCAR-3 ovarian) was 249 nM. It also gave a TGI (OVCAR-3 ovarian) of 823 nM, a GI50 (OVCAR-4 ovarian) of 224 nM and a TGI (OVCAR-4 ovarian) of 57600 nM. For the same compound, the GI50 (OVCAR-5 ovarian) was 136 nM, the TGI (OVCAR-5 ovarian) was over 100000 nM and the GI50 (OVCAR-8 ovarian) was 59.3 nM. It also gave a GI50 (PC-3 prostate) of 263 nM, a TGI (PC-3 prostate) of over 89400 nM and a GI50 (RPMI-8226 leukemia) of 118 nM. It also gave a TGI (RPMI-8226 leukemia) of over 100000 nM, a GI50 (RXF 393 renal) of 299 nM and a TGI (RXF 393 renal) of 910 nM. The GI50 (SF-268 CNS) was 532 nM, the TGI (SF-268 CNS) was over 100000 nM and the GI50 (SF-295 CNS) was 106 nM. For the same compound, the TGI (SF-295 CNS) was 15100 nM, the GI50 (SF-539 CNS) was 72.4 nM and the TGI (SF-539 CNS) was 206 nM. The GI50 (SK-MEL-2 melanoma) was 93.5 nM, the TGI (SK-MEL-2 melanoma) was 36400 nM and the GI50 (SK-MEL-28 melanoma) was 745 nM. For the same compound, the TGI (SK-MEL-28 melanoma) was over 100000 nM, the GI50 (SK-MEL-5 melanoma) was 101 nM and the TGI (SK-MEL-5 melanoma) was 394 nM. For the same compound, the GI50 (SK-OV-3 ovarian) was 219 nM, the TGI (SK-OV-3 ovarian) was 99400 nM and the GI50 (SN12C renal) was 116 nM. The TGI (SN12C renal) was over 42100 nM, the GI50 (SNB-19 CNS) was 275 nM and the TGI (SNB-19 CNS) was over 95200 nM. The GI50 (SNB-75 CNS) was 148 nM, the TGI (SNB-75 CNS) was 20000 nM and the GI50 (SR leukemia) was 102 nM. For the same compound, the TGI (SR leukemia) was over 100000 nM, the GI50 (SW-620 colon) was 147 nM and the TGI (SW-620 colon) was over 100000 nM. For the same compound, the GI50 (T-47D breast) was 7100 nM, the TGI (T-47D breast) was over 100000 nM and the GI50 (TK-10 renal) was 3720 nM. For the same compound, the TGI (TK-10 renal) was over 75100 nM, the GI50 (U251 CNS) was 259 nM and the TGI (U251 CNS) was over 100000 nM. The GI50 (UACC-257 melanoma) was 283 nM, the TGI (UACC-257 melanoma) was over 100000 nM and the GI50 (UACC-62 melanoma) was 146 nM. The TGI (UACC-62 melanoma) was over 51500 nM, the GI50 (UO-31 renal) was 188 nM and the TGI (UO-31 renal) was over 100000 nM.
